What was measured:
Trypanosoma cruzi = assay: Antitrypanosomal activity against epimastigotes of Trypanosoma cruzi Y after 96 hrs by Neubauer haemocytometer; type: functional, organism-based
[1] = Selectivity index, ratio of CC50 for mouse J774.G8 cells to IC50 for epimastigotes of Trypanosoma cruzi Y; type: functional
[2] = Selectivity index, ratio of CC50 for monkey LLC-MK2 cells to IC50 for epimastigotes of Trypanosoma cruzi Y; type: functional

Row | IC50 (Trypanosoma cruzi) [µM] | SMILES | Selectivity Index [1] | Selectivity Index [2]
1 | 93.5 | COC(=O)[C@@H]1Cc2c([nH]c3ccccc23)[C@H](c2cccc([N+](=O)[O-])c2)N1 (relative stereo) | – | –
2 | > 100 | COC(=O)[C@@H]1Cc2c([nH]c3ccccc23)[C@@H](c2ccc([N+](=O)[O-])cc2)N1 (relative stereo) | – | –
3 | 22.2 | COC(=O)[C@@H]1Cc2c([nH]c3ccccc23)[C@@H](c2cccc([N+](=O)[O-])c2)N1 (relative stereo) | 35.7 | 25.6
4 | 42.7 | COC(=O)[C@@H]1Cc2c([nH]c3ccccc23)[C@H](c2ccc([N+](=O)[O-])cc2)N1 (relative stereo) | – | –
